In patent publication US9453038B2, “Glucokinase activator compounds, compositions containing such compounds, and methods of treatment” (Merck Sharp & Dohme Corp., priority 2012, dated 2016):

Target: Recombinant human liver glucokinase (FLAG fusion protein) (Homo sapiens (Human), UniProt P35557)
Test: glucokinase (GK) activation assay, Thio-NADH formation coupled to G6PDH, absorbance at 405 nm
Type: biochemical
Conditions: 2.5 mM Glu; for EC50: 30° C.; for Emax: OD value of DMSO control regarded as 100%, read-out: Emax
Text: The glucokinase activity can, for instance, be determined without directly measuring glucose-6-phosphate by measuring the amount of Thio-NADH generated during the production of phosphogluconolactone from glucose-6-phosphate by a reporter enzyme glucose-6-phosphate dehydrogenase.
To test the exemplified compounds, the following assay was employed. Recombinant human liver glucokinase was expressed as a FLAG fusion protein in E. coli, and purified on ANTIFLAG M2 AFFINITY GEL (Sigma). The assay was carried out at 30° C. in a 96-well plate. In the plate was distributed 69 μl each of assay buffer (25 mM Hepes Buffer: pH=7.2, 2 mM MgCl2, 1 mM ATP, 0.5 mM TNAD, 1 mM dithiothreitol), to which was added 1 μl of a DMSO solution of the compound or DMSO as control. Then, 20 μl of pre-ice-cooled enzyme mixture (FLAG-GK, 20 U/ml G6PDH) was distributed thereto, to which was added 10 μl of 25 mM glucose as substrate to initiate the reaction (final glucose concentration=2.5 mM). After starting the reaction, the absorbance at 405 nm was measured every 30 seconds for 10 minutes to evaluate the compound based on the initial increase for 5 minutes. FLAG-GK was added so that the increase of absorbance after 5 minutes fell between 0.05 to 0.1 in the presence of 1% DMSO.
The OD values of the respective compounds were measured in the respective concentrations, wherein the OD value of DMSO as control is regarded as 100%. From the OD values at the respective concentrations, Emax (%, 2.5 mM Glu) and EC50 (nM, 2.5 mM Glu) were calculated and used as indicators of the GK activation capability of the compounds. According to the above assay, the GK activation capability of the exemplified compounds of the present invention was determined. […] Where different enantiomers of the same compound were tested, two numbers are provided. Where 3 numbers are provided, for example, Ex. #30, data for the racemic form is also shown.

Recombinant human liver glucokinase (FLAG fusion protein), sequence (P35557 other isoform, or with tags, fused parts or gaps): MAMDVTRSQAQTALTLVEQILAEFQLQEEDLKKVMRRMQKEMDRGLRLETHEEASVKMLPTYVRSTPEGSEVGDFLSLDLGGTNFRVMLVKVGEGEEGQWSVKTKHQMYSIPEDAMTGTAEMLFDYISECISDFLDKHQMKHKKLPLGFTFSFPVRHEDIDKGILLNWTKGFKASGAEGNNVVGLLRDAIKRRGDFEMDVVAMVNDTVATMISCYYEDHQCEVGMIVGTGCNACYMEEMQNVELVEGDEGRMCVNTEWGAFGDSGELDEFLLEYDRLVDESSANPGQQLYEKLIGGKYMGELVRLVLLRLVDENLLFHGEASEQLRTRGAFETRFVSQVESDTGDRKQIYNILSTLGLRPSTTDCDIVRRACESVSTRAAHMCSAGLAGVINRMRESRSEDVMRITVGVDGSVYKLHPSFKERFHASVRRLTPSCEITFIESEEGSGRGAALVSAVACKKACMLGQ

Row | SMILES | EC50 [nM] | Emax [%]
1 | CN1C(=O)CCC1c1cc2[nH]c(-c3ccc(CC(C)(C)C(=O)O)cn3)cc2cc1Oc1ccc(S(C)(=O)=O)nc1 (stereo not drawn) [Example 17, 2,2-dimethyl-3-(6-(6-(1-methyl-5-oxopyrrolidin-2-yl)-5-((6-(methylsulfonyl)pyridin-3-yl)oxy)-1H-indol-2-yl)pyridin-3-yl)propanoic acid] | 108 | 643
2 | CCS(=O)(=O)c1ccc(Oc2cc3cc(-c4ccc(CCC(=O)O)cn4)[nH]c3cc2C2CCC(=O)N2C)cc1 (stereo not drawn) [Example 2, 3-(6-{5-[4-(ETHYLSULFONYL)PHENOXY]-6-(1-METHYL-5-OXOPYRROLIDIN-2-YL)-1H-INDOL-2-YL}PYRIDIN-3-YL)PROPANOIC ACID] | 53.4 | 652
3 | COC(=O)CCc1ccc(Oc2cc3cc(-c4ccccn4)[nH]c3cc2C2CCC(=O)N2C)cc1 (stereo not drawn) [Example 26, methyl 3-(4-((6-(1-methyl-5-oxopyrrolidin-2-yl)-2-(pyridin-2-yl)-1H-indol-5-yl)oxy)phenyl)propanoate] | 4.3 | 545
